Data set [1] deals with A549. The experiment in a line: Cytotoxicity against human A549 cells assessed as cell growth inhibition. Format: functional, cell-based.
Data set [2] concerns BGC-823. The experiment in a line: Antiproliferative activity against human BGC-823 cells assessed as cell growth inhibition. The class given is functional, cell-based.
Another data set relates to KETR3. As to the kind of experiment: Antiproliferative activity against human KETR3 cells assessed as cell growth inhibition. Format: functional, cell-based.
Data set [3] deals with KB. The experiment in a line: Antiproliferative activity against human KB cells assessed as cell growth inhibition. The class given is functional, cell-based.
Data set [4] relates to MCF7. The experiment in a line: Antiproliferative activity against human MCF7 cells assessed as cell growth inhibition. The class given is functional, cell-based.
For a further data set, the system named is Bel-7402. The experiment in a line: Antiproliferative activity against human Bel-7402 cells assessed as cell growth inhibition. The class given is functional, cell-based.
For the next data set, the system named is A2780. The experiment in a line: Antiproliferative activity against human A2780 cells assessed as cell growth inhibition. Format: functional, cell-based.
In data set [5] the test system is HCT-8. As to the kind of experiment: Antiproliferative activity against human HCT-8 cells assessed as cell growth inhibition. Format: functional, cell-based.
The test system of data set [6] is HeLa. The experiment in a line: Antiproliferative activity against human HeLa cells assessed as cell growth inhibition. Format: functional, cell-based.
A short description of data set [7]: Antiproliferative activity against human HELF cells assessed as cell growth inhibition. Format: toxicity, cell-based.
Data set [8] relates to HCT-116. The experiment in a line: Cytotoxicity against human HCT-116 cells assessed as cell growth inhibition. The class given is functional, cell-based.
The test system of data set [9] is QG-56. The experiment in a line: Cytotoxicity against human QG-56 cells assessed as cell growth inhibition. The class given is functional, cell-based.
A further data set relates to NCI-H460. As to the kind of experiment: Cytotoxicity against human NCI-H460 cells assessed as cell growth inhibition. The class given is functional, cell-based.
Another data set concerns DLD-1. As to the kind of experiment: Cytotoxicity against human DLD-1 cells assessed as cell growth inhibition. The class given is functional, cell-based.
Data set [10] has as its system HCT-116. As to the kind of experiment: Cytotoxicity against human HCT-116 cells assessed as cell growth inhibition incubated for 4 days by Cell counting kit-8 assay. The conditions noted are these: HCT-116, 96 h. The class given is functional, cell-based. (In general: Tetrazolium dyes change colour on reduction, which living cells bring about.)
Another data set relates to HT-29. As to the kind of experiment: Cytotoxicity against human HT-29 cells assessed as cell growth inhibition. Format: functional, cell-based.
Data set [11] is described as follows: Cytotoxicity against mouse NIH3T3 cells assessed as cell growth inhibition at 50 ng/ml. The class given is toxicity, cell-based.
For the next data set, the system named is Melanoma cell line. The experiment in a line: Cytotoxicity against human Melanoma cell line assessed as cell growth inhibition. Format: functional, cell-based.
For data set [12], the system named is QG-56. As to the kind of experiment: Cytotoxicity against human QG-56 cells assessed as cell growth inhibition incubated for 4 days by Cell counting kit-8 assay. The class given is functional, cell-based. The conditions noted are these: QG-56, 96 h.
The test system of data set [13] is DU-145. As to the kind of experiment: Cytotoxicity against human DU-145 cells assessed as cell growth inhibition incubated for 4 days by Cell counting kit-8 assay. Format: functional, cell-based. The conditions noted are these: DU-145, 96 h.
A further data set relates to P388. The experiment in a line: Cytotoxicity against mouse P388 cells assessed as cell growth inhibition. Format: functional, cell-based.
Data set [14] relates to HeLa. The experiment in a line: Antiproliferative activity against human HeLa cells assessed as cell growth inhibition by MTT assay. Format: functional, cell-based.
Data set [15] concerns HCT-116. The experiment in a line: Growth inhibition of human HCT-116 cells. The class given is functional.
The subject of data set [16] is HCT-8. As to the kind of experiment: Antiproliferative activity against human HCT-8 cells assessed as cell growth inhibition by MTT assay. The class given is functional, cell-based.
The test system of data set [17] is KB. The experiment in a line: Antiproliferative activity against human KB cells assessed as cell growth inhibition by MTT assay. Format: functional, cell-based.
Data set [18] concerns QG-56. The experiment in a line: Growth inhibition of human QG-56 cells. The class given is functional.
Data set [19] concerns BGC-823. The experiment in a line: Antiproliferative activity against human BGC-823 cells assessed as cell growth inhibition by MTT assay. Format: functional, cell-based.
Data set [20] concerns A549. The experiment in a line: Antiproliferative activity against human A549 cells assessed as cell growth inhibition by MTT assay. The class given is functional, cell-based.
For data set [21], the system named is DU-145. The experiment in a line: Growth inhibition of human DU-145 cells. The class given is functional.
Data set [22] can be described thus: Cytotoxicity against human HEK293 cells assessed as cell growth inhibition. Format: toxicity, cell-based.
In data set [23] the test system is Neisseria gonorrhoeae. As to the kind of experiment: Antimicrobial activity against Neisseria gonorrhoeae assessed as reduction in microbial growth by disk diffusion assay. Format: functional.
The next data set deals with Malme-3M. The experiment in a line: Growth inhibition of human Malme-3M cells. The class given is functional.
For another data set, the system named is Bacillus subtilis. As to the kind of experiment: Antimicrobial activity against Bacillus subtilis assessed as reduction in microbial growth by disk diffusion assay. Format: functional. (In general: A growth-free zone around the sample is the usual read-out of agar diffusion tests.)
Data set [24] relates to Streptococcus pneumoniae. The experiment in a line: Antimicrobial activity against Penicillin resistant Streptococcus pneumoniae assessed as reduction in microbial growth by disk diffusion assay. Format: functional.
Data set [25] concerns Streptococcus pneumoniae. The experiment in a line: Antimicrobial activity against Streptococcus pneumoniae assessed as reduction in microbial growth by disk diffusion assay. Format: functional.
The test system of data set [26] is Neisseria gonorrhoeae. As to the kind of experiment: Antimicrobial activity against Penicillin resistant Neisseria gonorrhoeae assessed as reduction in microbial growth by disk diffusion assay. Format: functional.
Data set [27] concerns HCT-116. As to the kind of experiment: Antiproliferative activity against human HCT-116 cells assessed as cell growth inhibition by MTT colorimetric assay. The class given is functional, cell-based.
The subject of a further data set is MDA-MB-435. As to the kind of experiment: Antiproliferative activity against human MDA-MB-435 cells assessed as cell growth inhibition by MTT colorimetric assay. The class given is functional, cell-based.
Data set [28] concerns MCF7. As to the kind of experiment: Cytotoxicity against human MCF7 cells assessed as cell growth inhibition incubated for 72 hrs by MTT assay. Format: functional, cell-based. The settings on record: MCF7, 72 h.
A further data set has as its system T47D. As to the kind of experiment: Cytotoxicity against human T47D cells assessed as cell growth inhibition. The class given is functional, cell-based.
Another data set relates to ASPC1. The experiment in a line: Cytotoxicity against human ASPC1 cells assessed as cell growth inhibition. Format: functional, cell-based.
Data set [29] can be described thus: Cytotoxicity against human U373 MG cells assessed as cell growth inhibition incubated for 4 to 72 hrs by MTT assay. The class given is functional, cell-based, U-373MG ATCC.

Molecules are shown by their SMILES. In brackets after ≈: the same amount, converted by molar mass. Where a name gives a salt, the structure may show the parent alone. Where only a bound is given, the exact number is not on record here.

As usually defined, the IC50 is the concentration needed to halve the response being measured. Take `COC1=C(C)C(=O)C2=C(C1=O)[C@@H]1[C@@H]3CC4=C(C(=O)C(OC)=C(C)C4=O)[C@H](COC(=O)C(=O)CNC(=O)c4ccccc4)N3[C@@H](C#N)[C@H](C2)N1C`: the IC50 in the data set on A549 [1], with BGC-823 [2], in the data set on KETR3, in the data set with KB [3], in the data set on MCF7 [4] and in the data set with Bel-7402 was 2.12 nM in each case. Further, the half-inhibitory concentration (IC50) (in the data set on A2780; in the data set with HCT-8 [5]; with HeLa [6]; in [7]) was 2.12 nM throughout.
With `C/C=C(/C)C(=O)OC[C@H]1C2=C(C[C@H]3[C@H]4c5c(O)c(OC)c(C)c(O)c5[C@@H](O)[C@@H]([C@H](C#N)N13)N4C)C(=O)C(C)=C(OC)C2=O`, the IC50 was determined as 5.6 nM in the data set on HCT-116 [8], 11 nM with QG-56 [9], 6.7 nM with NCI-H460 and 5.7 nM in the data set with DLD-1.
Consider `COC1=C(C)C(=O)C2=C(C1=O)[C@H]1CN(C)[C@@H](C#N)[C@H](C2)N1C`, for which the IC50 in the data set with HCT-116 [8] was 84 nM; in the data set on QG-56 [9] it was 240 nM.
In general, inhibition refers to the drop in the measured response relative to a control, in per cent. Consider `COC1=C(C)C(=O)C2=C(C1=O)[C@@H]1[C@@H]3CC4=C(C(=O)C(OC)=C(C)C4=O)[C@H](COC(C)=O)N3[C@@H](O)[C@H](C2)N1C`, for which the IC50 in the data set on HCT-116 [10] is 0.57 nM; with A549 [1], 0.0125 µg/mL; in the data set on HT-29 it was 0.0125 µg/mL (≈ 0.0237 µM); with Melanoma cell line, 0.0125 µg/mL (≈ 0.0237 µM); with QG-56 [12], 0.76 nM; in the data set with DU-145 [13], 0.49 nM. The IC50 in the data set on P388 is 0.0125 µg/mL (≈ 0.0237 µM). The inhibition at 50 ng/ml in [11] was determined as 100%.
In general, GI50 refers to the concentration at which growth is held to half of that of the control. A higher GI50 goes with less potent growth inhibition. Take `C/C=C(/C)C(=O)OC[C@H]1C2=C(C[C@H]3[C@H]4C5=C(C[C@@H](C(=O)N13)N4C)C(=O)C(C)=C(OC)C5=O)C(=O)C(C)=C(OC)C2=O` [(-)-RENIERAMYCIN G]: the IC50 in the data set on HeLa [14] stood at 3800 nM; in the data set on HCT-8 [16], 3500 nM; with KB [17], 3500 nM; with BGC-823 [19], 3500 nM; in the data set on A549 [20], 3500 nM. Besides, the GI50 turned out to be 1100 nM in the data set on HCT-116 [15], 1300 nM in the data set with QG-56 [18] and 1300 nM in the data set with DU-145 [21].
With `CC(C)C[C@H](NC(=O)[C@H](Cc1ccccc1)NC(=O)c1cnccn1)B(O)O` [BORTEZOMIB], the IC50 in data set [22] worked out at 14000 nM.
Turning to `C/C=C(/C)C(=O)OC[C@H]1C2=C(C=C3[C@H]4c5c(O)c(OC)c(C)c(O)c5C(=O)[C@@H](C(=O)N31)N4C)C(=O)C(C)=C(OC)C2=O` [CRIBROSTATIN 5], the MIC in the data set on Neisseria gonorrhoeae [23] was 6.25 µg; with Bacillus subtilis, 12.5 µg; in the data set with Streptococcus pneumoniae [24] it was 50 µg; in the data set on Streptococcus pneumoniae [25], 6.25 µg; in the data set with Neisseria gonorrhoeae [26] it was 1.56 µg. Further, in the data set on Malme-3M, the GI50 was 390 nM.
In the case of `COC1=C(C)C(=O)C2=C(C1=O)[C@@H]1[C@@H]3CC4=C(C(=O)C(OC)=C(C)C4=O)[C@H](COC(C)=O)N3[C@@H](C#N)[C@H](C2)N1C` [CYANOJORUMYCIN], the IC50 in the data set on HCT-116 [8] is under 0.38 nM; with QG-56 [9] it was 0.68 nM.
`COc1cccc2c1C(=O)c1c(O)c3c(c(O)c1C2=O)C[C@@](O)(C(=O)CO)C[C@@H]3O[C@H]1C[C@H](N)[C@H](O)[C@H](C)O1` [DOXORUBICIN HYDROCHLORIDE]: the IC50 in the data set on A549 [1] was 310 nM.
Turning to `CCC(=O)OC[C@H]1C2=C(C[C@H]3[C@H]4C5=C(C[C@@H]([C@H](C#N)N13)N4C)C(=O)C(C)=C(OC)C5=O)C(=O)C(C)=C(OC)C2=O` [JORUNNAMYCIN C], the IC50 was found to be 1.5 nM in the data set with HCT-116 [10]; 2.8 nM in the data set on QG-56 [12]; 27.3 nM with HCT-116 [27]; 0.32 nM in the data set with DU-145 [13]; 16.3 nM with MDA-MB-435.
On to `C/C=C(/C)C(=O)OC[C@H]1C2=C(C[C@H]3[C@H]4C5=C(C[C@@H]([C@H](C#N)N13)N4C)C(=O)C(C)=C(OC)C5=O)C(=O)C(C)=C(OC)C2=O` [RENIERAMYCIN M], for which the IC50 came to 6 nM with MCF7 [28]; 0.84 nM in the data set with T47D; 20 nM in the data set with ASPC1; 3.1 nM in [29]; 11 nM in the data set with QG-56 [12]; 16.4 nM in the data set on HCT-116 [27]. In addition, the IC50 in the data set with MDA-MB-435 was determined as 6.3 nM. For the same compound, the GI50 in the data set on DU-145 [21] was determined as 1700 nM.
